In assay [1] the test system is NIH 3T3 murine embryonic lung fibroblasts. Put plainly: BrdU incorporation (Studies L-117.01/02). Conditions: NIH 3T3, BrdU. It is filed as cell-based, mouse. On the procedure: FIG. 19. […] Serum starved NIH 3T3 cells were treated with purified CG53135-01 (CG53135 in figure), 10% serum or vehicle only (control). DNA synthesis was measured in triplicate for each sample, using a BrdU incorporation assay. Data points represent average BrdU incorporation and bars represent standard error (SE).
(§1) Heterologous Protein Expression: CG53135-01 (batch 4A and 6) was used in these experiments. Protein was expressed using Escherichia coli (E. coli), BL21 (Novagen, Madison, Wis.), transformed with full-length CG53135-01 in a pETMY-hFGF20X/BL21 expression vector. Cells were harvested and disrupted, and then the soluble protein fraction was clarified by filtration and passed through a metal chelation column. The final protein fraction was dialyzed against phosphate buffered saline (PBS) plus 1 M L-arginine. Protein samples were stored at −70° C.
BrdU Incorporation: proliferative activity was measured by treatment of serum-starved cultured cells with a given agent and measurement of BrdU incorporation during DNA synthesis. Cells were cultured in respective manufacturer recommended basal growth medium supplemented with 10% fetal bovine serum or 10% calf serum as per manufacturer recommendations. Cells were grown in 96-well plates to confluence at 37° C. in 10% CO2/air (to subconfluence at 5% CO2 for dedifferentiated chondrocytes and NHOst). […]
A general note: Dividing cells build labelled thymidine or BrdU into new DNA.

Assay [2] relates to Balb MK mouse keratinocytes. Kind of assay: BrdU incorporation (Studies L-117.01/02). It is filed as cell-based.
Description: as §1
(§2) BrdU Incorporation: proliferative activity was measured by treatment of serum-starved cultured cells with a given agent and measurement of BrdU incorporation during DNA synthesis. Cells were cultured in respective manufacturer recommended basal growth medium supplemented with 10% fetal bovine serum or 10% calf serum as per manufacturer recommendations. Cells were grown in 96-well plates to confluence at 37° C. in 10% CO2/air (to subconfluence at 5% CO2 for dedifferentiated chondrocytes and NHOst). Cells were then starved in respective basal growth medium for 24-72 hours. CG53135 protein purified from E. coli or pCEP4/Sec or pCEP4/Sec-FGF 20× enriched conditioned medium was added (10 μL/100 μL of culture) for 18 hours. BrdU (10 μM final concentration) was then added and incubated with the cells for 5 hours. BrdU incorporation was assayed according to the manufacturer's specifications (Roche Molecular Biochemicals, Indianapolis, Ind.).

Assay [3] has as its system CCD 1106 KERTr human keratinocytes. Kind of assay: BrdU incorporation (Studies L-117.01/02). It is filed as cell-based.
Description: as §1, §2

Assay [4] has as its system CCD-1070Sk normal human foreskin fibroblasts. Kind of assay: BrdU incorporation (Studies L-117.01/02). It is filed as cell-based.
Description: as §1, §2

Assay [5] relates to Jurkat, an acute T-lymphoblastic leukemia cell line. Kind of assay: BrdU incorporation (Studies L-117.01/02). It is filed as cell-based.
Description: as §1, §2

Assay [6] relates to TF-1, an erythroblastic leukemia cell line. Kind of assay: BrdU incorporation (Studies L-117.01/02). It is filed as cell-based.
Description: as §1, §2

Assay [7] concerns human aorta smooth muscle cells (HSMC). Put plainly: BrdU incorporation (Studies L-117.01/02). It is filed as cell-based.
Description: as §1, §2

Assay [8] has as its system human coronary artery smooth muscle cells. Put plainly: BrdU incorporation (Studies L-117.01/02). It is filed as cell-based.
Description: as §1, §2

Assay [9] has as its system human pulmonary artery smooth muscle cells. Kind of assay: BrdU incorporation (Studies L-117.01/02). It is filed as cell-based.
Description: as §1, §2

In assay [10] the test system is mouse skeletal muscle cells. Kind of assay: BrdU incorporation (Studies L-117.01/02). It is filed as cell-based.
Description: as §1, §2

For assay [11], the system named is primary human osteoblasts (NHOst). Kind of assay: BrdU incorporation (Studies L-117.01/02). It is filed as cell-based.
Description: as §1, §2

Assay [12] has as its system rabbit synoviocyte cell line, HIG-82. Put plainly: BrdU incorporation (Studies L-117.01/02). It is filed as cell-based.
Description: as §1, §2

Assay [13] relates to MG-63 osteosarcoma cell line. Put plainly: BrdU incorporation (Studies L-117.01/02). It is filed as cell-based, human.
Description: as §1
as §2, with “BrdU incorporation was assayed according to the manufacturer's specifications (Roche Molecular Biochemicals, Indianapolis, Ind.).” left out

For assay [14], the system named is breast epithelial cell line, B5589. Kind of assay: BrdU incorporation (Studies L-117.01/02). It is filed as cell-based, human.
Description: as §1
as §2, with “BrdU incorporation was assayed according to the manufacturer's specifications (Roche Molecular Biochemicals, Indianapolis, Ind.).” left out

The test system of another assay is NIH 3T3 cells. Put plainly: Growth assay (cell count). It is filed as cell-based, mouse. Conditions: 1 μg, 48 hours. The method, then: FIG. 20. CG53135 stimulates Growth of NIH 3T3 Fibroblasts. Duplicate wells of serum starved NIH 3T3 cells were treated for […] with purified CG53135-01 (1 ug) or vehicle control. Cell counts for each well were determined in duplicate. Y— axis identifies cell number, which is the average of 4 cell counts (treatment duplicates×duplicate counts) and standard error (SE).
Growth Assay: growth activity was obtained by measuring cell number following treatment of cultured cells with a given agent for a specified period of time. In general, cells grown to ˜20% confluency in 6-well dishes were treated with basal medium supplemented with CG53135 or control, incubated for several days, trypsinized and counted using a Coulter Z1 Particle Counter.
To determine if recombinant CG53135-01 sustained cell growth, NIH 3T3 cells were cultured with 1 μg CG53135-01 or control for 48 hours and then counted (FIG. 20). CG53135 induced an approximately 2-fold increase in cell number relative to control in this assay.

Assay [15] deals with bovine aortic endothelial cells. Put plainly: Cell survival and BrdU incorporation in endothelial cells. It is filed as cell-based. Conditions: BAEC. The method, then: as §2
(§3) Effects of CG53135 on Endothelial Cells: protein therapeutic agents may inhibit or promote angiogenesis, the process through which endothelial cells differentiate into capillaries. Because CG53135 belongs to the fibroblast growth factor family, some members of which have angiogenic properties, the antiangiogenic or pro-angiogenic effects of CG53135 on endothelial cell lines were evaluated. The following cell lines were chosen because they are cell types used in understanding angiogenesis in cancer: HUVEC (human umbilical vein endothelial cells), BAEC (bovine aortic endothelial cells), HMVEC-d (human endothelial, dermal capillary). These endothelial cell types undergo morphogenic differentiation and are representative of large vessel (HUVEC, BAEC) as well as capillary endothelial cells (HMVEC-d).

Assay [16] concerns human dermal microvascular endothelial cells. The assay is described as above. It is filed as cell-based. The conditions noted are these: HMVEC-d. The method, then: as §2, §3
Assay [17] concerns human umbilical vein endothelial cells. Described as above. It is filed as cell-based. The conditions noted are these: HUVEC. The method, then: as §2, §3
In assay [18] the test system is HUVECS. Put plainly: Tube formation. It is filed as cell-based, human. The conditions noted are these: HUVEC.
Assay [19] relates to HUVECS. Kind of assay: VEGF induced cell migration. It is filed as cell-based, human. The conditions noted are these: HUVEC.
A further assay relates to endothelial cells. Put plainly: Proliferation summary for variants. It is filed as cell-based. Conditions: in vitro. On the procedure:
(§4) Experiments were performed to evaluate the proliferative response of representative cell types to CG53135, e.g., a full-length tagged variant (CG53135-01), a deletion variant (CG53135-02), and a full-length codon-optimized untagged variant (CG53135-05).
(§5) CG53135-02 (batch 1 and 13) was also used in these experiments. Protein was expressed in E. coli, BLR (DE3) (Novagen), transformed with the deletion variant CG53135-02 inserted into a pET24a vector (Novagen). A research cell bank (RCB) was produced and cell paste containing CG53135-02 was produced by fermentation of cells originating from the RCB. Cell membranes were disrupted by high-pressure homogenization, and lysate was clarified by centrifugation. CG53135-02 was purified by ion exchange chromatography. The final protein fraction was dialyzed against the formulation buffer (100 mM citrate, 1 mM ethylenediaminetetraacetic acid (EDTA), and 1 M L-arginine).
(§6) CG53135-05, DEV10, which were also used in these experiments, was prepared by Cambrex Biosciences (Hopkinton, Mass.) according to Process 1 as described in Section 6.18.1, infra.
as §2
(§7) The above described experiments were also performed using CG53135-02 and CG53135-05 protein products, and the results are summarized in the Conclusion section below.

Assay [20] relates to mesenchymal and epithelial cells. Kind of assay: Proliferation summary for variants. It is filed as cell-based. The conditions noted are these: in vitro. The method, then:
as §4, §5, §6, §2, §7

The values below come from patent US20050164929A1, “Methods of preventing and treating inflammatory bowel disease” (LUPINE LOGIC, INC., priority 2000, published 2005).

As for “CG53135-01: FGF-20 wild type, stop codon removed; SEQ ID NOs 1 and 2; expressed as tagged full-length variant”, in assay [1], the “half maximal concentration for induction of DNA synthesis” value is listed as roughly 10 ng/mL. Also, the “induction of DNA synthesis” value is on record as “dose-dependent manner” in [1]; “induced DNA synthesis” in assay [2]; “induced DNA synthesis” in [3]; “induced DNA synthesis” in assay [4]; “did not induce any significant increase in DNA synthesis” in assay [7]; “did not induce any significant increase in DNA synthesis” in assay [8]. The “induction of DNA synthesis” value was “did not induce any significant increase in DNA synthesis” in assay [9]; “did not induce any significant increase in DNA synthesis” in [10]; “did not induce any significant increase in DNA synthesis” in [11]; “induced DNA synthesis” in assay [12]; “induced DNA synthesis” in assay [13]; “induced DNA synthesis” in [14]. For the same substance, the BrdU incorporation response result in assay [5] is “did not show any response”. Moreover, in [6], the “effect on DNA synthesis” value is on record as “no stimulatory effect”. Besides, the “increase in cell number relative to control” value in the assay on NIH 3T3 cells is given as “approximately 2 fold”. In addition, the “cell survival and BrdU incorporation” value in assay [15], in assay [16] and in [17] was “did not alter cell survival or have stimulatory effects on BrdU incorporation” each time. Also, the tube formation result in the assay on HUVECS [18] is given as “did not inhibit tube formation”. For the same substance, the “VEGF induced cell migration” value in the assay with HUVECS [19] is given as “had no effect”. Moreover, in the assay on endothelial cells, the “proliferation of endothelial cells” value was “not”. The “proliferation of mesenchymal and epithelial cells” value in assay [20] is listed as “induces a proliferative response”.
